Laboratory results reported in ChEMBL document CHEMBL1781976, “Synthesis of 7,9-diazabicyclo[4.2.2]decanes as conformationally restricted κ receptor agonists: fine tuning of the dihedral angle of the ethylenediamine pharmacophore” (Eur J Med Chem, 2011).
pKi: −log10 of the molar value.

Assays:
[1] = biological target: Kappa-type opioid receptor (Homo sapiens, UniProt P41145); assay: Displacement of [3H]U69593 from kappa opioid receptor
[2] = biological target: Delta-type opioid receptor (Rattus norvegicus, UniProt P33533); assay: Displacement of [3H]DPDPE from delta opioid receptor in rat brain membranes; format: cell membranes
Delta-type opioid receptor, sequence (P33533 whole entry): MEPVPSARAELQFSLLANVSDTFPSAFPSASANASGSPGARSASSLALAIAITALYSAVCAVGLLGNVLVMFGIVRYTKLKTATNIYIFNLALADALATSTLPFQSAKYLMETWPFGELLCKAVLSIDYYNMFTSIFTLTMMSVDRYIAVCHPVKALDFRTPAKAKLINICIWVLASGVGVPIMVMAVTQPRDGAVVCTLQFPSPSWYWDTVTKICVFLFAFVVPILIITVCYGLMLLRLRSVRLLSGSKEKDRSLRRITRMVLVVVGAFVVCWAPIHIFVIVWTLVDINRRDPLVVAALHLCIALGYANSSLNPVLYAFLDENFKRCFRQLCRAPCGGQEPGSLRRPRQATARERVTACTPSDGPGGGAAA

Mu-type opioid receptor = Mu-type opioid receptor (Cavia porcellus, UniProt P97266); assay: Displacement of [3H]DAMGO from mu opioid receptor in guinea pig brain membranes; format: cell membranes, Membrane
Mu-type opioid receptor, sequence (P97266 whole entry): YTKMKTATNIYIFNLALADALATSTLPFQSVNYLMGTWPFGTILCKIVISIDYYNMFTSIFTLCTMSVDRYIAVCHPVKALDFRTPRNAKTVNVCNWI

[3] = biological target: Sigma non-opioid intracellular receptor 1 (Cavia porcellus, UniProt Q60492); assay: Displacement of [3H]-(+)-pentazocine from sigma 1 receptor in guinea pig brain membranes; format: cell membranes, Membrane
Sigma non-opioid intracellular receptor 1, sequence (Q60492 whole entry): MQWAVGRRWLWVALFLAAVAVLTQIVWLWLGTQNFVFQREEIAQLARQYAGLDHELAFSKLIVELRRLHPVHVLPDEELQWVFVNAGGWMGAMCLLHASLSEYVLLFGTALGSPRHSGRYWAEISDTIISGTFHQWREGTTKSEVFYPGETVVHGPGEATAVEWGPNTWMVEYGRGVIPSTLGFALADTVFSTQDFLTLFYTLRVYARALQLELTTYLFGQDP

[4] = biological target: Kappa-type opioid receptor (Cavia porcellus, UniProt P41144); assay: Displacement of [3H]U69593 from kappa opioid receptor in guinea pig brain membranes after 150 mins by scintillation counting; format: cell membranes, Membrane
Kappa-type opioid receptor (Cavia porcellus, UniProt P41144), sequence (P41144 whole entry): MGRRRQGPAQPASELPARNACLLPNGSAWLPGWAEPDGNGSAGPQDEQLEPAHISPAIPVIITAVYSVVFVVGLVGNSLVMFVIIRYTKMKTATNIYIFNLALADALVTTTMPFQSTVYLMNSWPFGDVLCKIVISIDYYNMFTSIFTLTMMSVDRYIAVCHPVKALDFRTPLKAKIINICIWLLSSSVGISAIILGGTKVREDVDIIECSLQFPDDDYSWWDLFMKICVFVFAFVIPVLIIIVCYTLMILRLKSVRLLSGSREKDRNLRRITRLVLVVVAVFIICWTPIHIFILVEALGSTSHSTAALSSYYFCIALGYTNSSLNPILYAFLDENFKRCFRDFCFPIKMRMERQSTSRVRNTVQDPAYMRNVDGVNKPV

[5] = Displacement of [3H]di-o-toylguanidine from sigma 2 receptor in rat liver homogenates; format: tissue-based

Kappa-type opioid receptor (Homo sapiens, UniProt P41145), sequence (P41145 whole entry): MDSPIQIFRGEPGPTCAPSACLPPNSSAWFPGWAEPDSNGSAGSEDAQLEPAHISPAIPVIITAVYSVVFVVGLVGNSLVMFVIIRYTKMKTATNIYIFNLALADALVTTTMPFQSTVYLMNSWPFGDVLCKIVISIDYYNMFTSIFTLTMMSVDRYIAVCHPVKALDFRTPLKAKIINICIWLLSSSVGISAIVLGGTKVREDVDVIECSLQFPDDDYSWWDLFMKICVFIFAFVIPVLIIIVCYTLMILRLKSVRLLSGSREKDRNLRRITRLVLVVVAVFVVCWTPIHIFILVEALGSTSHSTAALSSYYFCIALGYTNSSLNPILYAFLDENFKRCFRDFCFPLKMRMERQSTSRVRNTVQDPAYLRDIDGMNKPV

Row | SMILES | pKi [1] | pKi [2] | pKi (Mu-type opioid receptor) | pKi [3] | pKi [4] | pKi [5]
1 | COC(=O)N1CCN(C(=O)Cc2ccc(Cl)c(Cl)c2)[C@@H]([C@@H](C)N2CCCC2)C1 | 9.51 | – | – | – | – | –
2 | COC(=O)N1CCN(C(=O)Cc2ccc(Cl)c(Cl)c2)[C@H](CN2CCCC2)C1 | 9.35 | – | – | – | – | –
3 | COC(=O)N1CC2C(N3CCCC3)CCCC1CN2C(=O)Cc1ccc(Cl)c(Cl)c1 (racemic) | – | < 6.00 | < 6.00 | 6.34 | 6.48 | –
4 | COc1ccc(CN2CC3CCCC(N4CCCC4)C2CN3Cc2ccccc2)cc1 (racemic) | – | – | – | 6.27 | – | < 6.00
5 | O=C(Cc1ccc(Cl)c(Cl)c1)N1CC2CCCC(N3CCCC3)C1CN2Cc1ccccc1 (racemic; 14) | – | 6.82 | < 6.00 | 6.66 | 6.42 | < 6.00
6 | O=C(Cc1ccc(Cl)c(Cl)c1)N1CC2CCCC(N3CCCC3)C1CN2Cc1ccccc1 (racemic; 26) | – | 6.49 | < 6.00 | 6.76 | 6.50 | –
7 | O=C(Cc1ccc(Cl)c(Cl)c1)N1CCN2CC[C@@H](N3CCCC3)[C@H]1C2 (relative stereo) | – | – | – | – | < 6.00 | –
8 | O=C(Cc1ccc(Cl)c(Cl)c1)N1CCN2CC[C@H](N3CCCC3)[C@H]1C2 (relative stereo) | – | – | – | – | 7.14 | –
9 | COC(=O)N1CC2C(N3CCCC3)CCCC1CN2C(=O)Cc1ccc(Cl)c(Cl)c1 (stereo in doubt; 9) | – | < 6.00 | < 6.00 | < 6.00 | 7.19 | < 6.00
10 | COc1ccc(CN2CC3CCCC(N4CCCC4)C2CN3Cc2ccccc2)cc1 (stereo in doubt; 25) | – | – | – | 6.62 | – | 6.69
11 | CC(C)=CCN1CC[C@]2(C)c3cc(O)ccc3C[C@H]1[C@H]2C [(+)-PENTAZOCINE] | – | – | – | – | – | 7.24
